Test results reported in patent publication US20230295145A1, “PYRROLIDINE DERIVATIVES AND METHODS OF USE” (Genentech, Inc., priority 2020, published 2023).
Read-outs that look alike come from different tables or passages of the source.

Assays:
NCI-H2030 = assay: Cell Viability Assay (CellTiter-Glo); assay type: cell-based; details: 5 days
Method: (§1) Cell lines were cultured in RPMI-1640, 5% fetal bovine serum, and 2 mM glutamine in a humidified incubator maintained at 37° C. with 5% CO2. Cells were assessed with a Vi-CELL Cell Viability Analyzer (Beckman Coulter; Brea, CA); viability of at least 90% was required for screening. A Multidropä Combi Reagent Dispenser (Thermo Scientific; Waltham, MA) was used to plate cells into Falcons^â 384-well, black, clear-bottom plates (Catalog No. 353962; Corning; Tewksbury, MA) using seeding densities previous determined to achieve approximately 80% confluence at the final time point of the assay. The compounds were prepared at 1000× in advance using an Echo 555 liquid handler (Labcyte; Sunnyvale, CA) and stored in −80° C. until the day of compound addition. On the following day, cells were treated with compounds at final assay concentration 1 uM and 10 uM using a Bravo Automated Liquid-Handling Platform (Agilent; Santa Clara, CA). After 5 days, 25 mL CellTiter-Glo^â reagent was added using a MultiFloä Microplate Dispenser (BioTek; Winooski, VT). Cell lysis was induced by mixing for 30 minutes on an orbital shaker; plates were then incubated at room temperature for 10 minutes to stabilize the luminescent signal. Luminescence was read by a 2104 EnVision^â Multilabel Plate Reader (PerkinElmer; Waltham, MA).
(§2) The data was processed using Genedata Screener^â, Version 15 (Genedata; Basel, Switzerland) to assess compound effects on viability. Compound treated wells were normalized to the median value of 14 DMSO control wells on the same 384 well plate.

VHL [1] = molecular target: T1, VHL (Homo sapiens, UniProt P40337); assay: VHL HEK-293 BRET Assay (VHL NanoBRET Target Engagement Assay); assay type: cell-based; details: IC50 values measured in the presence of digitonin; HEK 293 RT VHL-NanoLuc stable cells; read-out: IC50 + Digi (μM)*
T1 construct: expressed in transfected cells
T1 sequence (P40337 whole entry): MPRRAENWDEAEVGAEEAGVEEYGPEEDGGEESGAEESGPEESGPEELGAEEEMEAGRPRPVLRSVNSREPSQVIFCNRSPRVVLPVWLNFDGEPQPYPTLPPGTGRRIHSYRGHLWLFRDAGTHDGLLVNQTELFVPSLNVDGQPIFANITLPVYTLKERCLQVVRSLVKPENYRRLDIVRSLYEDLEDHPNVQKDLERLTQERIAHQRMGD

CAL-120 = assay: Cell Viability Assay (CellTiter-Glo); details: 5 days
Method: as §1, §2

VHL [2] = molecular target: T1, VHL; assay: VHL HEK-293 BRET Assay (VHL NanoBRET Target Engagement Assay); assay type: cell-based; details: HEK 293 RT VHL-NanoLuc stable cells; read-out: IC50
Method: The VHL NanoBRET™ Target Engagement Assay analyzes the apparent affinity of test compounds for VHL in cells by competitive displacement of a VHL NanoBRET™ tracer reversibly bound to a NanoLuc® VHL fusion protein stably expressed in the cells.
Test compounds were transferred to the assay plate (384 Well White Non-Binding Corning Assay Plates (Corning-3574)) using an Echo 555 Liquid Handler (Labcyte) in 2.5 nL increments and, as appropriate, intermediate stock concentrations of compounds, in order to prepare a titration series. 50 nL of control compound (10 mM; parental unlabeled VHL antagonist; see structure below) and 50 nL of DMSO (negative control) were dispensed into the appropriate control wells. DMSO was backfilled to a final volume of 50 nL as required. 50 nl per well of 1 mM VHL NanoBRET™ Tracer in DMSO (NanoBRET™ Tracer-PEG2-590 (see structure below)) was transferred into each well using an Echo 555 (ultimately yielding a final concentration of 1 uM). HEK 293 RT VHL-NanoLuc® stable cells were cultured in DMEM High Glucose with Pyruvate, 10% fetal bovine serum, 2 mg/mL of Geneticin Selective Antibiotic (50 mg/mL) and 2 mM HEPES (1 M). Cells were seeded in Opti-MEM (Life Technologies-11058-021), 1.7×10^5 cells/mL, 40 μl per well into the assay plate, centrifuged at 500 rpm for 30 seconds and incubated for 2 hours. Max Signal control wells consisted of DMSO only treated wells. Minimum Signal control wells contained of 10 uM parental unlabeled VHL antagonist (control compound—see structure below). 3× Complete Substrate plus Inhibitor Solution was prepared in Opti-MEM (consists of a 1:166 dilution of NanoBRET™ Nano-Glo® Substrate plus a 1:500 dilution of Extracellular NanoLuc® Inhibitor in Opti-MEM), and 20 ul was dispensed into each well of the 384-well plate and centrifuged at 1000 rpm for 1 minute, then incubated for 2 minutes at room temperature. Background Signal control wells were prepared without tracer for background correction steps.
Plates were read using a PerkinElmer Envision Reader (model 2104-0020) equipped with Luminescence option (Mirror: BRET2 Enh (PE Barcode 659), Emission Filter: Omega 610LP (Barcode 504), 2nd Emission Filter: Umbelliferone 460 (Barcode 207), Measurement height: 6.5 mm, Measurement time: 1 s). The raw BRET ratio values were calculated by dividing the acceptor emission value (610 nm) by the donor emission value (460 nm) for each sample. To correct for background, the BRET ratio in the absence of tracer (average of no-tracer control samples) was subtracted from the BRET ratio of each sample. Raw BRET units were converted to milliBRET units (mBU) by multiplying each raw BRET value by 1,000. The normalized NanoBRET™ signal was calculated relative to the Max Signal control wells (DMSO treated control wells) and the Minimum Signal control wells. Percentage inhibition was calculated relative to the Minimum Signal control and Maximum Signal control wells. IC50 values were derived by four parameter curve fitting using the Robust method.

HCC366 = assay: Cell Viability Assay (CellTiter-Glo); assay type: cell-based; details: 10 μM, 5 days
Method: as §1, §2

PANC-1 = assay: Cell Viability Assay (CellTiter-Glo); assay type: cell-based; details: 10 μM, 5 days
Method: as §1, §2

IC50 (VHL [1]) [µM]	IC50 (VHL [2]) [µM]	Structure (SMILES)	Normalized viability % DMSO (HCC366) [% DMSO]	also measured
7.47	18.2	CNC(=O)[C@@H]1C[C@@H](O)CN1C(=O)[C@@H](n1cc(CN2CCC(C(=O)OC)CC2)nn1)C(C)(C)C [Compound 1059, methyl 1-[[1-[(1S)-1-[(2S,4R)-4-hydroxy-2-(methylcarbamoyl)pyrrolidine-1-carbonyl]-2,2-dimethyl-propyl]triazol-4-yl]methyl]piperidine-4-carboxylate]	–	Normalized viability % DMSO (NCI-H2030; 10 μM): 12.7 % DMSO; Normalized viability % DMSO (CAL-120; 10 μM): 18.1 % DMSO
2.52	0.55	CC(Cc1ccc(Br)cc1F)NC(=O)[C@@H]1C[C@@H](O)CN1C(=O)[C@@H](n1cc(C2CC2)nn1)C(C)(C)C (stereo partly drawn) [Compound 556, (2S,4R)-N-[2-(4-bromo-2-fluoro-phenyl)-1-methyl-ethyl]-1-[(2S)-2-(4-cyclopropyltriazol-1-yl)-3,3-dimethyl-butanoyl]-4-hydroxy-pyrrolidine-2-carboxamide]	–	Normalized viability % DMSO (NCI-H2030; 10 μM): 50.4 % DMSO
1.64	0.928	CC(C)(NC(=O)[C@@H]1C[C@@H](O)CN1C(=O)[C@@H](n1cc(C2CC2)nn1)C(C)(C)C)c1cccc(C#N)c1 [Compound 561, (2S,4R)-N-[1-(3-cyanophenyl)-1-methyl-ethyl]-1-[(2S)-2-(4-cyclopropyltriazol-1-yl)-3,3-dimethyl-butanoyl]-4-hydroxy-pyrrolidine-2-carboxamide]	12.5	–
22.3	26.7	CC(C)(C)[C@@H](C(=O)N1C[C@H](O)C[C@H]1C(=O)NC1CN(c2ccncc2)C1)n1cc(C2CC2)nn1 [Compound 445, (2S,4R)-1-[(2S)-2-(4-cyclopropyltriazol-1-yl)-3,3-dimethyl-butanoyl]-4-hydroxy-N-[1-(4-pyridyl)azetidin-3-yl]pyrrolidine-2-carboxamide]	5.2	–
4.86	3.68	CC(C)(C)[C@@H](C(=O)N1C[C@H](O)C[C@H]1C(=O)NC1CCN(c2ccc(Cl)c(Cl)c2)C1)n1cc(C2CC2)nn1 (stereo partly drawn) [Compound 463, (2S,4R)-1-[(2S)-2-(4-cyclopropyltriazol-1-yl)-3,3-dimethyl-butanoyl]-N-[1-(3,4-dichlorophenyl)pyrrolidin-3-yl]-4-hydroxy-pyrrolidine-2-carboxamide]	–	Normalized viability % DMSO (PANC-1): 35.6 % DMSO

More lines, now with the values behind:

Structure (SMILES)	IC50 (VHL [1]) [µM]	IC50 (VHL [2]) [µM]	Normalized viability % DMSO (HCC366) [% DMSO]	also measured
CNC(=O)[C@@H]1C[C@@H](O)CN1C(=O)[C@@H](n1cc(-c2cccc(C(F)(F)F)c2)nn1)C(C)(C)C [Compound 974, (2S,4R)-1-[(2S)-3,3-dimethyl-2-[4-[3-(trifluoromethyl)phenyl]triazol-1-yl]butanoyl]-4-hydroxy-N-methyl-pyrrolidine-2-carboxamide]	–	–	–	Normalized viability % DMSO (NCI-H2030; 1 μM): 15.3 % DMSO
CC(C)(C)[C@@H](C(=O)N1C[C@H](O)C[C@H]1C(=O)N[C@H]1CC[C@H](c2nc3ccccc3o2)CC1)n1cc(C2CC2)nn1 [Compound 106, (2S,4R)-N-[4-(1,3-benzoxazol-2-yl)cyclohexyl]-1-[(2S)-2-(4-cyclopropyltriazol-1-yl)-3,3-dimethyl-butanoyl]-4-hydroxy-pyrrolidine-2-carboxamide]	4.41	3.37	6.0	–
Cc1ccc(N2CCC[C@H]2CNC(=O)[C@@H]2C[C@@H](O)CN2C(=O)[C@@H](n2cc(C3CC3)nn2)C(C)(C)C)cc1 [Compound 462, (2S,4R)-1-[(2S)-2-(4-cyclopropyltriazol-1-yl)-3,3-dimethyl-butanoyl]-4-hydroxy-N-[[(2S)-1-(p-tolyl)pyrrolidin-2-yl]methyl]pyrrolidine-2-carboxamide]	5.35	2.82	11.3	–
CNC(=O)[C@@H]1C[C@@H](O)CN1C(=O)[C@@H](n1cc(CN(C)c2ccccc2)nn1)C(C)(C)C [Compound 842, (2S,4R)-1-[(2S)-3,3-dimethyl-2-[4-[(N-methylanilino)methyl]triazol-1-yl]butanoyl]-4-hydroxy-N-methyl-pyrrolidine-2-carboxamide]	–	–	–	Normalized viability % DMSO (CAL-120; 1 μM): 18.5 % DMSO
